Cytotoxicity data for 99 compounds are collected here from ChEMBL document CHEMBL3507680, “University of Dundee, Gates Library screen for HepG2 cell viability”.

This data set in a line: Human HepG2 cell viability assay in 384 well format. More on the design: dose 125 nL, time 70.5 hour; concentration not given beside the values. In kind it is toxicity, cell-based. The settings on record: HepG2 cells, read-out: Inhibition.
As for `CN(C)CCNC(=O)c1ccc2ccc(N(C)CC3CC3)n2c1`, the cytotoxicity at 70.5 h is -0.944%.
Regarding `CC(C)CN1CCC(NC(=O)NCCC(=O)NCc2ccccc2)CC1`, the cytotoxicity at 70.5 h was -2.46%.
As to `COc1ccc(C)cc1S(=O)(=O)NCCC(O)c1ccccc1` (centres undefined), the cytotoxicity at 70.5 h was -10.5%.
Regarding `CC1CCCCN1CCNC(=O)c1ccccc1N1CCOCC1` (centres undefined), the cytotoxicity at 70.5 h worked out at 19%.
With `CCOc1ccc(Br)cc1-c1cc(N)[nH]n1`, the cytotoxicity at 70.5 h is -6.54%.
On to `O=C(NCc1nc(C2CC2)no1)N1CCOC(c2ccccc2)C1` (centres undefined), for which the cytotoxicity at 70.5 h is -13.1%.
Take `COc1ccc(F)cc1S(=O)(=O)N1CCC(OC)CC1`: the cytotoxicity at 70.5 h was -2.88%.
With `CN(C)c1ccc(CNC(=O)Nc2ccc(S(=O)(=O)C(F)F)cc2)cc1` the figure was -0.147%; with `CCN1CC(COc2ccccc2)Oc2ncccc2S1(=O)=O` (centres undefined), -3.66%; with `CC(C)c1ncc2c(n1)CN(Cc1ccc(C(N)=O)cc1)CC2`, 24.1%.
Turning to `CC(C)(C)c1nc(CN2CCc3onc(-c4cccc(F)c4)c3C2)no1`, the cytotoxicity at 70.5 h is -12.1%.
On to `Cc1nn(C)c(Cl)c1CNCc1cccnc1N1CCCCC1`, for which the cytotoxicity at 70.5 h was -2.26%.
Regarding `Cn1nccc1C1CCN(Cc2ccn(-c3ccccc3)n2)CC1`, the cytotoxicity at 70.5 h is -5.5%.
With `CN(C)S(=O)(=O)N1CCC(Oc2ccccn2)CC1` the figure was 3.95%; with `Cc1nc(CN2CCO[C@@H]3CN(C(=O)CN(C)C)CC[C@@H]3C2)cs1`, -13.1%.
Consider `CS(=O)(=O)NCCN1CCCC1c1noc(C2CC2)n1` (centres undefined), for which the cytotoxicity at 70.5 h is 19.5%.
On to `O=C(NCc1ccccn1)N(Cc1ccc(F)cc1F)C1CC1`, for which the cytotoxicity at 70.5 h was -17.3%.
In the case of `COCCN(C)C(C(=O)O)c1ccc(Cl)c(F)c1` (centres undefined), the cytotoxicity at 70.5 h is -5.39%.
On to `O=C(C1CCCC1)N1CCN(Cc2nc(-c3ccco3)no2)CC1`, for which the cytotoxicity at 70.5 h was -9.97%.
With `Cc1n[nH]c(C2CN(CCNC3CCCCC3)CCO2)n1` (centres undefined), the cytotoxicity at 70.5 h worked out at 3.49%.
With `Cc1cc(CNCC2Cn3nnc(C)c3CO2)oc1C` (centres undefined) the figure was -7.06%.
With `CCC(C)NC(=O)Cn1ncc2c1c(C)nn2CC` (centres undefined) the figure was 22.8%; with `O=C(c1cc(CC2(NCc3ccccc3)COC2)no1)N1CCCCC1`, -5.63%.
Regarding `CS(=O)(=O)N(Cc1ccon1)c1ccc(F)cc1`, the cytotoxicity at 70.5 h is -2.76%.
As for `Cc1cnn(CC2CCCN2Cc2nnc(C3CC3)n2C)c1` (centres undefined), the cytotoxicity at 70.5 h was -8.67%.
`CCc1cccc(OCCN(C)C(=O)c2ccccc2NCC(=O)O)c1`: the cytotoxicity at 70.5 h was -13.6%.
With `CCC(=O)N1CCC2(COCc3c(C)nc(N(C)C)nc32)C1` (centres undefined), the cytotoxicity at 70.5 h amounted to 20.3%.
As for `CC1=C(CCN2C[C@H](O)[C@@H](N3CCOCC3)C2)C(C)(C)CCC1`, the cytotoxicity at 70.5 h was -8.76%.
As for `COCCn1ccc2c(NC(=O)c3n[nH]c4c3CCC4)cccc21`, the cytotoxicity at 70.5 h was 1.93%.
With `CN(Cc1cncnc1)[C@H]1CN(C(=O)c2ccc[nH]2)[C@@H]2CCCO[C@@H]21` the figure was -8.37%; with `CCOCc1nc2c(c(NC(CC)c3ccncc3)n1)CCNCC2` (centres undefined), 1.72%.
On to `CCSCCn1cc(-c2nccs2)nn1`, for which the cytotoxicity at 70.5 h is -9.08%.
Turning to `CCn1ncc(CN(C)C(=O)c2cc(C(F)(F)F)n(C)n2)c1C`, the cytotoxicity at 70.5 h is -17.2%.
Regarding `CCN1C(=O)C[C@@H]2[C@@H]1CCN2S(=O)(=O)Cc1ccc(C)cc1`, the cytotoxicity at 70.5 h turned out to be 1.97%.
For `O=C(O)C(c1ccc2c(c1)OCO2)N1CCC(O)(c2cccnc2)CC1` (centres undefined), the cytotoxicity at 70.5 h came out at 0.616%.
Regarding `O=C(NCCc1nnc[nH]1)Nc1cccc(SC(F)F)c1`, the cytotoxicity at 70.5 h is -9.47%.
In the case of `CCn1cncc1CN1CCN(CC2(c3ccc(C)cc3)CC2)CC1`, the cytotoxicity at 70.5 h was 12%.
In the case of `COc1ccc(OC)c(S(=O)(=O)NC(=O)C(C)OC)c1` (centres undefined), the cytotoxicity at 70.5 h was -13.3%.
With `c1cncc(C[C@H]2[C@H](N3CCOCC3)CCN2Cc2nccs2)c1` the figure was -3.76%.
Consider `COc1cc2c(cc1CNC(Cc1cccs1)c1nccs1)OCO2` (centres undefined), for which the cytotoxicity at 70.5 h came to 18.9%.
On to `COc1ccccc1N1CCCC(NC(=O)Nc2cccnc2)C1` (centres undefined), for which the cytotoxicity at 70.5 h worked out at 8.99%.
For the compound `CN(Cc1ccccn1)C(=O)c1ccc2c(c1O)OC(C)(C)C2`, the cytotoxicity at 70.5 h was found to be 11.6%.
As to `CC(C)CCn1[nH]c(CNc2ccc(Cl)cc2)nc1=O`, the cytotoxicity at 70.5 h is 0.442%.
`CS(=O)(=O)CCC(=O)N1CCC2(CCCN(C3CCOCC3)C2=O)C1` (centres undefined): the cytotoxicity at 70.5 h was -9.61%.
With `CCn1nc(C(=O)N2CCCC2c2noc(C3CC3)n2)ccc1=O` (centres undefined) the figure was 12.1%; with `CCS(=O)(=O)NC1CCCN(Cc2ccn(C)c(=O)c2)C1` (centres undefined), -9.02%; with `Cn1cc(NC(=O)c2ccccn2)cc(Cl)c1=O`, -7.7%.
Take `CN(C)C1CCN(C(=O)NCc2ccc(Cn3cncn3)cc2)CC1`: the cytotoxicity at 70.5 h was 14.8%.
With `Cc1cnccc1CN(C)C1CCN(c2ncnc3[nH]cnc23)CC1` the figure was -6.65%; with `CC(C)(C)NC(=O)N1CCCn2nc(C(=O)Nc3ccccc3)cc2C1`, -12.5%; with `O=C(N[C@@H]1c2ccccc2C[C@@H]1O)C1CCN(Cc2ccco2)CC1`, -0.979%.
Take `O=C(c1cnc(-c2ncccn2)s1)N1CCCC(n2cccn2)C1` (centres undefined): the cytotoxicity at 70.5 h was -10.1%.
Turning to `Cc1nc[nH]c1-c1nccn1CCCN(C)C`, the cytotoxicity at 70.5 h is 6.24%.
Regarding `NC(=O)C(CNC(=O)CCc1ccsc1)Cc1ccc(F)cc1` (centres undefined), the cytotoxicity at 70.5 h was 21%.
On to `COCC1CN(C(=O)Nc2cc(-n3cccc3)ccc2F)CCO1` (centres undefined), for which the cytotoxicity at 70.5 h worked out at 7.34%.
With `Cc1ccc(CCCC(=O)N2CCCC(CS(N)(=O)=O)C2)s1` (centres undefined) the figure was -5.56%.
For the compound `Cc1cccnc1CN1CCC(c2nnc(Cn3cccn3)n2C)CC1`, the cytotoxicity at 70.5 h is -7.96%.
Turning to `Cc1cccc(CN2CC[C@@H]3[C@@H]2CCN3C(=O)c2ccno2)n1`, the cytotoxicity at 70.5 h was -4.67%.
In the case of `Cc1ccccc1OC1CCN(C(=O)CNC(=O)N(C)C)CC1`, the cytotoxicity at 70.5 h is -15.2%.
With `CCOc1cc(Cl)ccc1CNC(=O)N1CCCC(CO)C1` (centres undefined) the figure was -9.17%; with `COc1ncc(Cl)c(NCc2ccc([S+](C)[O-])cc2)n1` (centres undefined), -0.908%.
For the compound `CN1CC2(CCN(C(=O)C3CCC3)CC2)COc2ccccc2S1(=O)=O`, the cytotoxicity at 70.5 h is -4.42%.
`CCN(CC)C(=O)c1nnn(-c2ccc(C)cc2)c1C1CC1`: the cytotoxicity at 70.5 h was -7.41%.
Turning to `CC[C@@H](c1ccccc1)n1c(CN)n[nH]c1=O`, the cytotoxicity at 70.5 h was -13.5%.
As for `CC(C)CC(CCO)CNC(=O)N1CCOC2(CCCC2)C1` (centres undefined), the cytotoxicity at 70.5 h was -1.95%.
`CCc1nnc2n1CCN(C(=O)Cc1csc(-c3ccco3)n1)C2`: the cytotoxicity at 70.5 h was -15.6%.
With `CCc1ncc(C(=O)N2CCCC2Cn2cccn2)s1` (centres undefined) the figure was 12.3%; with `CNC(=O)[C@@]12CCO[C@@H]1CCN(S(=O)(=O)c1ccccc1F)C2`, -13.3%; with `O=C(c1ccco1)N1CCC2(CCCN(c3ncc(F)cn3)C2)C1` (centres undefined), 13.2%.
Consider `c1ccc(OCCN2CCCCC2Cn2cncn2)cc1` (centres undefined), for which the cytotoxicity at 70.5 h worked out at 23.7%.
Consider `Cc1nn(CC(C)C)c(N(C)C)c1CNCc1cc2ccccc2[nH]1`, for which the cytotoxicity at 70.5 h came out at 5.6%.
Regarding `O=C1CC(C(=O)O)C2(CCN(C(=O)Nc3ccccc3Cl)CC2)N1` (centres undefined), the cytotoxicity at 70.5 h was -2.72%.
Regarding `Cc1ccc(C(O)CNC(=O)Nc2cc(C)nn2C)cc1` (centres undefined), the cytotoxicity at 70.5 h was -3.09%.
With `Cc1noc(C)c1CN(C)C(=O)C1CCCCN1S(C)(=O)=O` (centres undefined) the figure was 13.6%; with `Cc1cc(C#N)ccc1S(=O)(=O)NCc1cnc(N(C)C)n1C`, -5.78%.
With `Cn1cnnc1CNC(=O)CCCOc1ccccc1Cl` the figure was -14.3%.
`Oc1cc(C2CCCCN2Cc2cccs2)nc(-c2ccncc2)n1` (centres undefined): the cytotoxicity at 70.5 h was -11.8%.
With `O=C(NC1CC1)N1CCc2ccc(=O)n(CCN3CCCC3)c2CC1` the figure was 0.272%; with `CCn1cc(-c2cc(-c3cc(CN(C)C)cs3)nc(N)c2C#N)c(C)n1`, -6.34%.
Regarding `CC(C)CN1CCS(=O)(=O)[C@@H]2CCN(S(=O)(=O)CC(C)C)CC[C@@H]21`, the cytotoxicity at 70.5 h was -3.69%.
As for `COc1ccc(F)cc1C(=O)N1CCCC(n2nc(C)nc2C)C1` (centres undefined), the cytotoxicity at 70.5 h was -9.24%.
As for `CC(C)c1sc(Cl)nc1C(=O)NCc1ccncc1`, the cytotoxicity at 70.5 h is 19.6%.
Regarding `COCCN(C)C(C(=O)O)c1ccc2ccccc2c1` (centres undefined), the cytotoxicity at 70.5 h stood at 6.21%.
For the compound `COCCNC(=O)[C@@]12CCO[C@@H]1CCN(Cc1ccncc1)C2`, the cytotoxicity at 70.5 h was -10.2%.
With `CN1CCCN(CC(CC(=O)Nc2ccc(Cl)cc2)C(=O)O)CC1` (centres undefined) the figure was -6.04%.
Take `NC(=O)COc1ccc(CNCc2ccc(F)c(F)c2)cc1`: the cytotoxicity at 70.5 h was determined as 0.155%.
For `COc1c(CNCCNC(=O)c2ccccc2F)c(C)nn1C`, the cytotoxicity at 70.5 h was -15.6%.
With `COc1ccc(Nc2nc3c(C)nn(C)c3c(=O)n2C)cc1` the figure was 29.7%.
With `CS(=O)(=O)N1CCOCC2(CN(Cc3ccc(F)cc3)CCO2)C1` (centres undefined), the cytotoxicity at 70.5 h is -3.17%.
As for `Cn1cc(-c2csc(N3CCN(C(=O)OC(C)(C)C)CC3)n2)cn1`, the cytotoxicity at 70.5 h is -2.04%.
For the compound `Cc1cccc(NCC(=O)NC2(C#N)CCCC2)c1C(=O)N1CCCC1`, the cytotoxicity at 70.5 h came out at 2.28%.
On to `CC(C)OCC(=O)N1CCCN(Cc2ccc(C#N)cc2)CC1`, for which the cytotoxicity at 70.5 h came to 5.66%.
As for `CC(C)c1cnc(CN(C)C2CCN(CCc3ccncc3)C2)o1` (centres undefined), the cytotoxicity at 70.5 h was found to be 18.9%.
Regarding `CNC(=O)c1cccc(CCNS(C)(=O)=O)c1`, the cytotoxicity at 70.5 h was -2.35%.
`Cc1cc(NC(=O)NC(C)CO)ccc1OCC(F)(F)F` (centres undefined): the cytotoxicity at 70.5 h is -2.25%.
With `CS(=O)(=O)N1CC(c2nc(N)ncc2-c2ccc(F)cc2)C1`, the cytotoxicity at 70.5 h is -2.15%.
Take `O=C(c1cc(COc2ccc3c(c2)OCO3)[nH]n1)N1CCCO1`: the cytotoxicity at 70.5 h was -2.52%.
With `CN(Cc1ccc(Cl)s1)C(=O)Nc1ccc(N(C)C)nc1`, the cytotoxicity at 70.5 h was -11.5%.
On to `O=C(CCc1cc2n(n1)CCCN(C(=O)[C@H]1CCCO1)C2)NC1CC1`, for which the cytotoxicity at 70.5 h turned out to be 3.28%.
